“And” between values parts separate entries of the source, which are not always exact repeats. Equal entries are not always repeated. A value given as a limit tells only on which side of the number the result lay.

The results in this text go back to BindingDB's records for doi:10.1016/s0223-5234(00)01171-5 (Clinical Research Institute of Montreal, 2000).

Test [1] concerns the target Delta-type opioid receptor (Mus musculus, UniProt P32300).
For test [2], the target named is Mu-type opioid receptor (Cavia porcellus, UniProt P97266).
The target in test [3] is Kappa-type opioid receptor (Cavia porcellus, UniProt P41144).
Kappa-type opioid receptor, sequence (P41144 whole entry): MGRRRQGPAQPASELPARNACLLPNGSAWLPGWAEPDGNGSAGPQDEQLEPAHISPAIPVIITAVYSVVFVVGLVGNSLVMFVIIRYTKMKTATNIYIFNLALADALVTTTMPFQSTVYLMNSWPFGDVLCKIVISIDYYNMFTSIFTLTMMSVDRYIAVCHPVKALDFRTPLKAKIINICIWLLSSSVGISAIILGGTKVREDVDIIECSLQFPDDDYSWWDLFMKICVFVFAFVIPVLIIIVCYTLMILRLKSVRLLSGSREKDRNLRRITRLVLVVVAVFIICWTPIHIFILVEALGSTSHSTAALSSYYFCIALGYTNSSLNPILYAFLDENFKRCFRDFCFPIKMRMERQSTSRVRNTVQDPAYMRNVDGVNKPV

Delta-type opioid receptor, sequence (P32300 whole entry): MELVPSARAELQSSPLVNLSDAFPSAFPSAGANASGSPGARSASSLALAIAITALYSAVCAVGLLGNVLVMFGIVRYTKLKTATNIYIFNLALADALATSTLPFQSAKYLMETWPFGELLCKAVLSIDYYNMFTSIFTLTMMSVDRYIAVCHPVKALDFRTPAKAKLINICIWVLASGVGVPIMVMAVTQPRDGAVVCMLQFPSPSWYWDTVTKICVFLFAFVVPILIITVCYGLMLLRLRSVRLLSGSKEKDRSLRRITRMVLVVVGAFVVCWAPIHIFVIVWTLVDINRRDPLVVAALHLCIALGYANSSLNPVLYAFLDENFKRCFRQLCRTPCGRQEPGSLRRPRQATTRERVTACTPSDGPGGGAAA
Mu-type opioid receptor, sequence (P97266 whole entry): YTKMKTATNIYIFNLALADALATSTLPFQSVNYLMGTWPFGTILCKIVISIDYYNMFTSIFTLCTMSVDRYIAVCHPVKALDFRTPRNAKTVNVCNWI

Broadly, the Ki is a measure of affinity in units of concentration, obtained from inhibition or displacement. High values mean a looser hold on the target, low ones a stronger hold on the target. With `Cc1cc(O)ccc1C[C@H](N)C(=O)N[C@H](CCCN=C(N)N)C(=O)N[C@@H](Cc1ccccc1)C(=O)N[C@@H](CCCCN)C(N)=O` [H-Hmt-D-Arg-Phe-Lys-NH2 II], in test [1], the Ki was > 10000 nM and 2320 nM.
For `Cc1cc(O)cc(C)c1C[C@H](N)C(=O)N[C@H](CCCN=C(N)N)C(=O)N[C@@H](Cc1ccccc1)C(=O)N[C@@H](CCN)C(N)=O` [H-Dmt-D-Arg-Phe-A2bu-NH2], the Ki amounted to 0.803 nM in test [2], 6130 nM in test [1] and 47.5 nM in test [3].
`NCCCC[C@H](NC(=O)[C@H](Cc1ccccc1)NC(=O)[C@@H](CCCN=C(N)N)NC(=O)[C@@H](N)Cc1ccc(O)cc1)C(N)=O` [NSC_122222]: the Ki in test [2] worked out at 1.69 nM; in test [3], 4230 nM.
In the case of `Cc1cc(O)cc(C)c1C[C@H](N)C(=O)N[C@H](CCCN=C(N)N)C(=O)N[C@@H](Cc1ccccc1)C(=O)N[C@@H](CCCN)C(N)=O` [Dmt-d-Arg-Phe-Orn-NH2], the Ki in test [2] came to 0.151 nM; in test [1], 1240 nM; in test [3], 26.3 nM.
With `CN[C@@H](Cc1c(C)cc(O)cc1C)C(=O)N[C@H](CCCN=C(N)N)C(=O)N[C@@H](Cc1ccccc1)C(=O)N[C@@H](CCCCN)C(N)=O` [Tmt-D-Arg-Phe-Lys-NH2], the Ki in test [2] came to 0.192 nM; in test [1] it was 543 nM; in test [3], 46.1 nM.
